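Interpolation was linear, between the two tested concentrations surrounding the appropriate level; five concentrations were tested over 48 hours in 96-well plates. Here, GI50 denotes the concentration required for 50% inhibition of growth. At the TGI there is no net growth.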
test system: MDA-MB-468 breast; test: NCI tumour cell line growth inhibition, 48 h

Point of comparison: `CC1(C)N=C(N)N=C(N)N1c1cccc(Br)c1`, GI50 400 nM. Against it:
- COCCn1cc(-c2csc(-c3c[nH]c4ccc(Br)cc34)n2)c2cccnc21 — 5.8-fold higher, 2340 nM
- Nc1c(F)cc(-c2nc3cc(F)ccc3[se]2)cc1Br — 15-fold lower, 26 nM
- CNC(=O)c1cc(Oc2ccc3c(c2)sc2nc(-c4ccc(N(C)C)cc4)cn23)ccn1 — within 1.5-fold, 300 nM
- FC(F)(F)c1cc(Nc2ccc3cc(OCCCN4CCOCC4)ccc3n2)ccc1Cl — 4.8-fold higher, 1910 nM
- C#Cc1cccc(NC(=O)c2ccc(NC(=O)CCl)cc2)c1 — 47-fold higher, 18800 nM
- Cc1ccc(S(=O)(=O)Nc2ccc(-c3cc(-c4cccc(F)c4)c(C#N)c(N)n3)cc2)cc1 — 4.3-fold higher, 1720 nM
- CN1CCN(Cc2cc(NC(=O)c3cccc(C#Cc4cccc5[nH]nc(N)c45)c3)cc(C(F)(F)F)c2)CC1 — 4.4-fold higher, 1750 nM
- CCC(=O)Nc1cc(Nc2cc(NC3CC3)n3ncc(C#N)c3n2)ccc1C — 2.9-fold higher, 1160 nM
- COc1ccc(OC)c(/C=C/c2nc(SCc3ccccc3)n(-c3ccc(Cl)cc3)n2)c1 — 13-fold higher, 5120 nM
- CCN(Cc1ccc(F)cc1)c1ccc(CO)c(OC)c1 — within 1.5-fold, 435 nM
- COc1ccc(/C=C2\c3cc(OC)c(OC)c(OC)c3CC[C@@H]2O)cc1F — 2.9-fold higher, 1160 nM
- COC(=O)[C@]12CC[C@@H](C)[C@H](C)[C@@H]1C1=CC[C@@H]3[C@@]4(C)C(C=O)=C[C@@](C)(COC(=O)/C=C/c5ccccc5)[C@@H]4[C@H](O)C[C@@]3(C)[C@]1(C)CC2 — 6.5-fold higher, 2590 nM
- Cc1cc(Cl)cc(Cc2cc(Cl)cc(C)c2O)c1O — 5.5-fold higher, 2220 nM
- Cc1nccc2c3ccc(OCc4cn(-c5ccc(Cl)cc5)nn4)cc3n(CC(C)C)c12 — 2.4-fold higher, 968 nM
- COc1cnc2c(c1)C(=O)c1c-2n(CCCN2CCNCC2)c(=O)c2cc([N+](=O)[O-])ccc12 — 1.6-fold lower, 257 nM
- C[C@@H](Oc1cc(-n2cnc3ccc(OC[C@@H](O)CO)cc32)sc1C(N)=O)c1ccccc1Cl — 25-fold lower, 15.9 nM
- C=C1C(=O)O[C@H]2[C@H]1CC/C(COC(=O)NCCCCCCCCNC(=O)OC/C1=C/CC[C@@]3(C)O[C@H]3[C@H]3OC(=O)C(=C)[C@@H]3CC1)=C\CC[C@@]1(C)O[C@@H]21 — 2.1-fold lower, 191 nM
- Cc1ccc(S(=O)(=O)N2CCc3ccc(O)c4c3C2Cc2ccc3c(c2-4)OCO3)cc1 (stereo not drawn) — 1.9-fold higher, 743 nM
- COC1=CC(=O)c2nc(Cl)ccc2C1=O — 3.4-fold higher, 1360 nM
- Nc1ncnc2c1ccn2[C@@H]1O[C@H]([C@H](O)c2ccc(Cl)c(F)c2)[C@@H](O)[C@H]1O — 100-fold higher, 40700 nM
- CN(C)CCNC(=O)NC[C@H]1CC[C@@H]2[C@H](O1)c1cc(C(F)(F)F)ccc1N[C@H]2c1ccccc1 — 11-fold lower, 34.9 nM
- O=[N+]([O-])c1ccc(Sc2ccncn2)c([N+](=O)[O-])c1 — 2.5-fold higher, 982 nM
- COc1ccc(N(C)c2nc(Cl)nc3cnn(C)c23)cc1 — lower, < 10 nM
- COc1cccc(Nc2nccc(-c3cnn4ncccc34)n2)c1 — 8.3-fold lower, 48.4 nM
- CN(C)c1ccc(N=C2C=CC(=O)c3ccccc32)cc1 — 5.4-fold higher, 2150 nM
- C=CCc1c(O)c(C(=O)/C=C/c2ccccc2)c(OC)c2ccoc12 — 7.7-fold higher, 3070 nM
- CCn1ccc(NS(=O)(=O)c2ccc(N)cc2)nc1=O — higher, > 100000 nM
- CCCN1CCC(c2ccc(Nc3nc(Nc4cc(F)ccc4C(N)=O)c4cc[nH]c4n3)c(OC)c2)CC1 — 8.7-fold higher, 3470 nM
- CN1CCN(Cc2ccc(NC(=O)c3cncc(C#Cc4cnc(N)c5cnccc45)c3)cc2C(F)(F)F)CC1 — within 1.5-fold, 285 nM
- CN(C)CCOC(=O)Nc1nc2ccc(Sc3ccccc3)cc2[nH]1 — 5-fold higher, 2020 nM
- N#CC1C(=O)NC(c2ccccc2[N+](=O)[O-])c2sc3c(F)cccc3c21 (stereo not drawn) — 3.7-fold lower, 108 nM
- COCc1c(-c2ccc(NC(=O)Nc3cc(C(F)(F)F)ccc3F)c(F)c2)c2c(N)ncnn2c1CN1CCOCC1 — 4-fold higher, 1620 nM
- CC1=C([Se]CC(OC(=O)[C@@H](CO)NC(=O)OC(C)(C)C)C(=O)NCCCCCC(=O)OCc2ccccc2)C(=O)c2ccccc2C1=O (stereo partly drawn) — 3.7-fold higher, 1490 nM

Point of comparison: `COc1cnc2c(c1)C(=O)c1c-2n(CCCN2CCNCC2)c(=O)c2cc([N+](=O)[O-])ccc12`, TGI 1350 nM. Against it:
- COCCn1cc(-c2csc(-c3c[nH]c4ccc(Br)cc34)n2)c2cccnc21 — 5.7-fold higher, 7630 nM
- Nc1c(F)cc(-c2nc3cc(F)ccc3[se]2)cc1Br — 14-fold lower, 93.3 nM
- CNC(=O)c1cc(Oc2ccc3c(c2)sc2nc(-c4ccc(N(C)C)cc4)cn23)ccn1 — higher, > 50000 nM
- FC(F)(F)c1cc(Nc2ccc3cc(OCCCN4CCOCC4)ccc3n2)ccc1Cl — 5-fold higher, 6750 nM
- C#Cc1cccc(NC(=O)c2ccc(NC(=O)CCl)cc2)c1 — 57-fold higher, 76900 nM
- Cc1ccc(S(=O)(=O)Nc2ccc(-c3cc(-c4cccc(F)c4)c(C#N)c(N)n3)cc2)cc1 — 2.8-fold higher, 3760 nM
- CN1CCN(Cc2cc(NC(=O)c3cccc(C#Cc4cccc5[nH]nc(N)c45)c3)cc(C(F)(F)F)c2)CC1 — 2.5-fold higher, 3350 nM
- CCC(=O)Nc1cc(Nc2cc(NC3CC3)n3ncc(C#N)c3n2)ccc1C — 3-fold higher, 4060 nM
- COc1ccc(OC)c(/C=C/c2nc(SCc3ccccc3)n(-c3ccc(Cl)cc3)n2)c1 — 63-fold higher, 84500 nM
- CCN(Cc1ccc(F)cc1)c1ccc(CO)c(OC)c1 — 1.6-fold higher, 2110 nM
- COc1ccc(/C=C2\c3cc(OC)c(OC)c(OC)c3CC[C@@H]2O)cc1F — higher, > 100000 nM
- CC1(C)N=C(N)N=C(N)N1c1cccc(Br)c1 — higher, > 85100 nM
- COC(=O)[C@]12CC[C@@H](C)[C@H](C)[C@@H]1C1=CC[C@@H]3[C@@]4(C)C(C=O)=C[C@@](C)(COC(=O)/C=C/c5ccccc5)[C@@H]4[C@H](O)C[C@@]3(C)[C@]1(C)CC2 — 5.5-fold higher, 7490 nM
- Cc1cc(Cl)cc(Cc2cc(Cl)cc(C)c2O)c1O — 5.1-fold higher, 6920 nM
- Cc1nccc2c3ccc(OCc4cn(-c5ccc(Cl)cc5)nn4)cc3n(CC(C)C)c12 — 8.9-fold higher, 12000 nM
- C[C@@H](Oc1cc(-n2cnc3ccc(OC[C@@H](O)CO)cc32)sc1C(N)=O)c1ccccc1Cl — 4.5-fold higher, 6070 nM
- C=C1C(=O)O[C@H]2[C@H]1CC/C(COC(=O)NCCCCCCCCNC(=O)OC/C1=C/CC[C@@]3(C)O[C@H]3[C@H]3OC(=O)C(=C)[C@@H]3CC1)=C\CC[C@@]1(C)O[C@@H]21 — 2.9-fold lower, 462 nM
- Cc1ccc(S(=O)(=O)N2CCc3ccc(O)c4c3C2Cc2ccc3c(c2-4)OCO3)cc1 (stereo not drawn) — 5.5-fold higher, 7490 nM
- COC1=CC(=O)c2nc(Cl)ccc2C1=O — 2-fold higher, 2670 nM
- Nc1ncnc2c1ccn2[C@@H]1O[C@H]([C@H](O)c2ccc(Cl)c(F)c2)[C@@H](O)[C@H]1O — higher, > 100000 nM
- CN(C)CCNC(=O)NC[C@H]1CC[C@@H]2[C@H](O1)c1cc(C(F)(F)F)ccc1N[C@H]2c1ccccc1 — 4.3-fold lower, 312 nM
- O=[N+]([O-])c1ccc(Sc2ccncn2)c([N+](=O)[O-])c1 — 2.8-fold higher, 3780 nM
- COc1ccc(N(C)c2nc(Cl)nc3cnn(C)c23)cc1 — higher, > 100000 nM
- COc1cccc(Nc2nccc(-c3cnn4ncccc34)n2)c1 — 13-fold lower, 106 nM
- CN(C)c1ccc(N=C2C=CC(=O)c3ccccc32)cc1 — 4.5-fold higher, 6050 nM
- C=CCc1c(O)c(C(=O)/C=C/c2ccccc2)c(OC)c2ccoc12 — 8.4-fold higher, 11400 nM
- CCn1ccc(NS(=O)(=O)c2ccc(N)cc2)nc1=O — higher, > 100000 nM
- CCCN1CCC(c2ccc(Nc3nc(Nc4cc(F)ccc4C(N)=O)c4cc[nH]c4n3)c(OC)c2)CC1 — 5.5-fold higher, 7390 nM
- CN1CCN(Cc2ccc(NC(=O)c3cncc(C#Cc4cnc(N)c5cnccc45)c3)cc2C(F)(F)F)CC1 — 3.3-fold higher, 4520 nM
- CN(C)CCOC(=O)Nc1nc2ccc(Sc3ccccc3)cc2[nH]1 — 5.7-fold higher, 7730 nM
- N#CC1C(=O)NC(c2ccccc2[N+](=O)[O-])c2sc3c(F)cccc3c21 (stereo not drawn) — 4.8-fold lower, 283 nM
- COCc1c(-c2ccc(NC(=O)Nc3cc(C(F)(F)F)ccc3F)c(F)c2)c2c(N)ncnn2c1CN1CCOCC1 — 4.2-fold higher, 5680 nM
- CC1=C([Se]CC(OC(=O)[C@@H](CO)NC(=O)OC(C)(C)C)C(=O)NCCCCCC(=O)OCc2ccccc2)C(=O)c2ccccc2C1=O (stereo partly drawn) — 2.3-fold higher, 3160 nM

Reference: PubChem BioAssay (NCI)
